Data taken from patent US20100055147A1, “ANGIOTENSIN (1-7) ELUTING STENT” (priority 2006, published 2010).

What was measured:
[1] = test system: neointima formation in the rat abdominal aorta; test: Neointima area in stented rat abdominal aorta (histology); assay type: in vivo
Source text: (§1) Specific pathogen-free, male Wistar rats (Harlan, Horst, Netherlands) were fed standard rat chow and water ad libitum. For Ang-(1-7) administration by minipump, 28 rats were used. The animals were anaesthetised with O2, N2O and isoflurane (Abbot B.V., Hoofddorp, Netherlands). In 20 animals, bare metal stents (Medtronic Driver® 2.5×8 mm stents) were placed in the abdominal aorta. Upon stent placement, osmotic minipumps (Model 2004, Alzet, Charles River, Maastricht, The Netherlands) were implanted subcutaneously for drug delivery via a catheter in the jugular vein. The pumps infused either Ang-(1-7) (Bachem, Well am Rhein, Germany) (24 μg/kg/h) (n=10) or saline (0.25 μl/h) (n=10). Furthermore, a control group underwent sham surgery (n=8: surgery identical to stent groups, but without balloon insertion and stenting), and received an osmotic minipump releasing saline. Treatment continued for four weeks. Five rats were excluded because of technical failure (aortic leakage or minipump failure) resulting in n=7 for Ang-(1-7) infusion, n=10 for saline infusion, and n-6 for sham-operated rats. […]
To determine if Ang-(1-7) infusion by minipump or elution from the stent reduced neointima formation, neointima area was measured in animals which received Ang-(1-7) either by stent or minipump (Table 1).

[2] = test system: isolated thoracic aorta rings; test: Organ bath, isolated thoracic aortic rings four weeks after stenting; assay type: in vivo, rat; settings: minipump infusion, FIG. 5
Source text: Specific pathogen-free, male Wistar rats (Harlan, Horst, Netherlands) were fed standard rat chow and water ad libitum. For Ang-(1-7) administration by minipump, 28 rats were used. The animals were anaesthetised with O2, N2O and isoflurane (Abbot B.V., Hoofddorp, Netherlands). In 20 animals, bare metal stents (Medtronic Driver® 2.5×8 mm stents) were placed in the abdominal aorta. Upon stent placement, osmotic minipumps (Model 2004, Alzet, Charles River, Maastricht, The Netherlands) were implanted subcutaneously for drug delivery via a catheter in the jugular vein. The pumps infused either Ang-(1-7) (Bachem, Well am Rhein, Germany) (24 μg/kg/h) (n=10) or saline (0.25 μl/h) (n=10). Furthermore, a control group underwent sham surgery (n=8: surgery identical to stent groups, but without balloon insertion and stenting), and received an osmotic minipump releasing saline. Treatment continued for four weeks. Five rats were excluded because of technical failure (aortic leakage or minipump failure) resulting in n=7 for Ang-(1-7) infusion, n=10 for saline infusion, and n-6 for sham-operated rats.
To test the effect of Ang-(1-7)-eluting stents (see Example 1 for details), 36 rats underwent placement of three types of stents into the abdominal aorta, bare metal stents, stents coated with polymer alone, or stents coated with polymer containing approximately 90 μg Ang-(1-7). Six rats were excluded because of technical failure during surgery, and three stents could not be processed due to incomplete polymerisation of embedding plastic (see below) leaving n=9 for bare metal stent, n=10 for stent with polymer only and n=8 for stent with polymer+Ang-(1-7).
Twenty-eight days after stent implantation, the animals were anaesthetised with O2, N2O and isoflurane, and systemically heparinized with 500 IE intravenously (Leo Pharma B.V., Breda, The Netherlands). The stented abdominal aortas were harvested, fixed, embedded in methylmethacrylate, sectioned and stained for histological analysis as described previously. […]
The stented aortas were evaluated in organ bath studies with isolated vascular rings. […] The endothelium-dependent vasodilation was assessed by a cumulative dose of metacholine (MeCh; 10 nM to 0.1 mM). […] The NO-dependent vasodilation to metacholine was calculated, by subtraction of the vasodilation in the presence of L-NMMA from the total vasodilation. The PG-dependent vasodilation in response to MeCh was calculated by subtraction of the vasodilation in the presence of L-NMMA and indomethacin from the vasodilation in the presence of L-NMMA. The EDHF-dependent vasodilation was determined by the vasodilation to metacholine in the presence of L-NMMA and indomethacin. […]

[3] = test system: iliac artery; test: Small vessel myograph, iliac artery rings four weeks after stenting; assay type: in vivo, rat; settings: FIG. 3
Source text: as §1, with “weeks.” for “weeks. Five rats were excluded because of technical failure (aortic leakage or minipump failure) resulting in n=7 for Ang-(1-7) infusion, n=10 for saline infusion, and n-6 for sham-operated rats.”
(§2) Iliac and brachial arteries were prepared under a dissection microscope in Krebs solution that was kept at 4° C. […] After this, vessels were brought to tension in 20 μm steps until reaching a diameter corresponding to 100 mmHg transmural pressure (L100, calculated by exponential curve fitting with Excel software). […] All responses were recorded in grams tension. The responses to MeCh were expressed as the percent decrease in PE EC70 responses.

[4] = test system: brachial artery; test: Small vessel myograph, brachial artery rings four weeks after stenting; assay type: in vivo, rat; settings: minipump infusion
Source text: as §1, with “weeks.” for “weeks. Five rats were excluded because of technical failure (aortic leakage or minipump failure) resulting in n=7 for Ang-(1-7) infusion, n=10 for saline infusion, and n-6 for sham-operated rats.”
as §2

[5] = test system: rat bone marrow mononuclear cells (MNC) and endothelial progenitor cells (EPC); test: Cultured rat bone marrow mononuclear cells (MNC) and endothelial progenitor cells (EPC); assay type: cell-based; settings: 10^−7 mol/L, 7 days of culture
Method: Five rats were sacrificed by exsanguination under O2, N2O and isoflurane anaesthesia. Bone marrow was isolated from the left and right femurs by flushing the bone marrow cavity with sterile phosphate-buffered saline at room temperature (PBS, Gibco, Invitrogen, Breda, The Netherlands). From each individual rat, MNC were obtained by density gradient centrifugation at 2000 rpm (MSE Mistral 3000i, UK) for 20 minutes at room temperature according to manufacturer's instruction (Cedarlane Laboratories ltd., Hornby, Canada). Cells from individual rats were then resuspended in endothelial cell basal medium-2 (EGM; Cambrex Bioproducts, Clonetics, New Jersey, USA) containing supplemented 2% fetal bovine serum and EGM-2 SingleQuots (Clonetics). At day 1, 5×10^5 cells/well were seeded in 1% gelatin (225 bloom, Sigma-Aldrich, Zwijndrecht, The Netherlands) precoated 96-well culture plates (Costar, Corning, N.Y., USA) at 37° C. in a humidified incubator in the presence of 5% CO2. At day 3 of culture, medium with non-attached cells was removed, and replaced by fresh culture medium containing Ang-(1-7) at 10^−7 mol/L with or without antagonists (treatment medium). Next, cells were grown for 7 days, changing treatment medium at day 5 and day 7. At day 9, treatment medium was removed and culture medium supplemented with 10 μg/mL acetylated low-density lipoprotein (Dil-Ac-LDL) was added to the cells for 4 h. […]
Detection of staining was performed with the use of fluorescence microscopy (Leica, Wetzlar, Germany) at a magnification of 200×. […] Cells were quantified with the use of ImagePro software (Media Cybernetics, Silver Spring, USA). In the occasion that the presence of cell clusters hindered proper digital quantification, cell numbers were assessed by hand. […]
To this purpose MNC were isolated from rat bone marrow and cultured for 2 days to allow attachment. […] To determine if Ang-(1-7) preferentially stimulated EPC, the number of EPC was expressed as a percentage of the total population of MNC (FIG. 6B). […]

## angiotensin-(1-7) (DRVYIHP; listed as Homo sapiens) [Ang-(1-7)]
[1]; infusion using a minipump
  neointimal formation (in words): reduction
[1]; minipump infusion 24 μg/kg/h for four weeks, bare metal stent in rat abdominal aorta, p < 0.05 vs. saline
  Neointima area NIA: 0.51 ± 0.05 mm²
[2]; thoracic aorta
  EDHF contribution to metacholine vasodilation: stimulated
  NO release (contribution to metacholine vasodilation): did not alter
  PG contribution to metacholine vasodilation: stimulated
[2]; stented group showed 40% decrease
  Emax of total response on metacholine: full recovery
[3]; chronic infusion by minipump, iliac artery (downstream)
  vasodilation upon stimulation with metacholine: increased
[3]; minipump infusion, iliac artery
  vasoconstrictions (phenylephrine): remained equal
[4]; brachial artery (remote), FIG. 4
  vasodilator function: improved
[4]; brachial artery, to the level of sham-operated rats
  vasoconstrictor responses to phenylephrine: decreased
[5]; FIG. 6A
  number of EPC: increased
  number of MNC: increased
[5]; FIG. 6B
  relative number of EPC (percentage of total MNC): increased
